Laboratory results from the supplement of paper PMC13207355.

How the values were obtained:
Conditions in all cases: exposure time: 72 h
E34 [1] = patient-derived glioblastoma stem cells of proneural subtype; test: phenotypic distance (Euclidean, principal components) from DMSO controls (arbitrary units); higher = stronger morphological change
E57 [2] = patient-derived glioblastoma stem cells of mesenchymal subtype; test: as above
FT3469 [3] = normal neural stem cell line; test: as above
E13 [4] = patient-derived glioblastoma stem cells of classical subtype; test: as above
E28 [5] = patient-derived glioblastoma stem cells of classical subtype; test: as above
E21 [6] = patient-derived glioblastoma stem cells of mesenchymal subtype; test: as above
E31 [7] = patient-derived glioblastoma stem cells of proneural subtype; test: as above
E34 [8] = test: surviving fraction (nuclei count normalised to DMSO); higher = more cells surviving (less toxic)
E57 [9] = test: as above
FT3469 [10] = test: as above
E13 [11] = test: as above
E28 [12] = test: as above
E21 [13] = test: as above
E31 [14] = test: as above
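For phenotypic distance (Euclidean, principal components) from DMSO controls in this document: cell Painting imaging in 384-well plates, CellProfiler features reduced to at least 20 principal components, Euclidean distance versus same-plate DMSO vehicle wells (0.1% v/v), median over six images per well.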
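For surviving fraction (nuclei count normalised to DMSO) in this document: nuclei counted by high-content imaging of Hoechst-stained cells in laminin-coated 384-well plates, relative to 0.1% DMSO vehicle wells, with staurosporine as cell-death control.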

C[C@@H](O[C@H]1OCCN(Cc2n[nH]c(=O)[nH]2)[C@H]1c1ccc(F)cc1)c1cc(C(F)(F)F)cc(C(F)(F)F)c1 [Aprepitant]
Conditions	phenotypic distance	surviving fraction
E13 [4], 4.1 nM	0.787	–
E13 [4], 12.3 nM	0.437	–
E13 [4], 37 nM	0.522	–
E13 [4], 111.1 nM	0.344	–
E13 [4], 333.3 nM	0.93	–
E13 [4], 1000 nM	0.532	–
E13 [4], 3000 nM	1.13	–
E13 [11], 4.1 nM	–	0.928
E13 [11], 12.3 nM	–	0.902
E13 [11], 37 nM	–	0.98
E13 [11], 111.1 nM	–	0.996
E13 [11], 333.3 nM	–	0.901
E13 [11], 1000 nM	–	0.903
E13 [11], 3000 nM	–	0.856
E21 [6], 4.1 nM	3.49	–
E21 [6], 12.3 nM	1.08	–
E21 [6], 37 nM	0.937	–
E21 [6], 111.1 nM	0.517	–
E21 [6], 333.3 nM	0.679	–
E21 [6], 1000 nM	0.478	–
E21 [6], 3000 nM	1.36	–
E21 [13], 4.1 nM	–	1.02
E21 [13], 12.3 nM	–	0.857
E21 [13], 37 nM	–	0.96
E21 [13], 111.1 nM	–	1.02
E21 [13], 333.3 nM	–	1.02
E21 [13], 1000 nM	–	0.955
E21 [13], 3000 nM	–	0.913
E28 [5], 4.1 nM	0.614	–
E28 [5], 12.3 nM	0.686	–
E28 [5], 37 nM	0.613	–
E28 [5], 111.1 nM	0.671	–
E28 [5], 333.3 nM	0.788	–
E28 [5], 1000 nM	0.862	–
E28 [5], 3000 nM	0.675	–
E28 [12], 4.1 nM	–	0.85
E28 [12], 12.3 nM	–	1.09
E28 [12], 37 nM	–	0.982
E28 [12], 111.1 nM	–	1.03
E28 [12], 333.3 nM	–	0.935
E28 [12], 1000 nM	–	1.03
E28 [12], 3000 nM	–	0.879
E31 [7], 4.1 nM	0.696	–
E31 [7], 12.3 nM	1.23	–
E31 [7], 37 nM	0.463	–
E31 [7], 111.1 nM	0.647	–
E31 [7], 333.3 nM	1.03	–
E31 [7], 1000 nM	0.986	–
E31 [7], 3000 nM	1.02	–
E31 [14], 4.1 nM	–	1.03
E31 [14], 12.3 nM	–	0.789
E31 [14], 37 nM	–	1.01
E31 [14], 111.1 nM	–	0.981
E31 [14], 333.3 nM	–	1.07
E31 [14], 1000 nM	–	1.04
E31 [14], 3000 nM	–	1
E34 [1], 4.1 nM	0.513	–
E34 [1], 12.3 nM	0.635	–
E34 [1], 37 nM	0.742	–
E34 [1], 111.1 nM	0.53	–
E34 [1], 333.3 nM	0.573	–
E34 [1], 1000 nM	0.615	–
E34 [1], 3000 nM	1.13	–
E34 [8], 4.1 nM	–	1.01
E34 [8], 12.3 nM	–	1.01
E34 [8], 37 nM	–	0.914
E34 [8], 111.1 nM	–	1.03
E34 [8], 333.3 nM	–	0.934
E34 [8], 1000 nM	–	0.948
E34 [8], 3000 nM	–	0.963
E57 [2], 4.1 nM	0.607	–
E57 [2], 12.3 nM	0.891	–
E57 [2], 37 nM	0.573	–
E57 [2], 111.1 nM	0.373	–
E57 [2], 333.3 nM	0.479	–
E57 [2], 1000 nM	1.04	–
E57 [2], 3000 nM	1.13	–
E57 [9], 4.1 nM	–	0.865
E57 [9], 12.3 nM	–	1.03
E57 [9], 37 nM	–	1.02
E57 [9], 111.1 nM	–	0.945
E57 [9], 333.3 nM	–	0.985
E57 [9], 1000 nM	–	1.07
E57 [9], 3000 nM	–	0.96
FT3469 [3], 4.1 nM	0.824	–
FT3469 [3], 12.3 nM	0.817	–
FT3469 [3], 37 nM	0.96	–
FT3469 [3], 111.1 nM	0.816	–
FT3469 [3], 333.3 nM	0.735	–
FT3469 [3], 1000 nM	0.537	–
FT3469 [3], 3000 nM	0.788	–
FT3469 [10], 4.1 nM	–	0.843
FT3469 [10], 12.3 nM	–	0.823
FT3469 [10], 37 nM	–	0.935
FT3469 [10], 111.1 nM	–	0.829
FT3469 [10], 333.3 nM	–	0.999
FT3469 [10], 1000 nM	–	0.797
FT3469 [10], 3000 nM	–	0.929
